Where a name gives a salt, the structure may show the parent alone. Read-outs that look alike come from different tables or passages of the source.
Tests used:
hOAT [1] = target: T1, hOAT (Homo sapiens, UniProt P04181); experiment: Time-dependent dialysis of inhibited hOAT; format: biochemical; conditions: up to 48 h against buffer with excessive PLP and α-KG
T1 construct: made in house; host or cells: E. coli BL21(DE3)
T1 sequence (P04181 26-439): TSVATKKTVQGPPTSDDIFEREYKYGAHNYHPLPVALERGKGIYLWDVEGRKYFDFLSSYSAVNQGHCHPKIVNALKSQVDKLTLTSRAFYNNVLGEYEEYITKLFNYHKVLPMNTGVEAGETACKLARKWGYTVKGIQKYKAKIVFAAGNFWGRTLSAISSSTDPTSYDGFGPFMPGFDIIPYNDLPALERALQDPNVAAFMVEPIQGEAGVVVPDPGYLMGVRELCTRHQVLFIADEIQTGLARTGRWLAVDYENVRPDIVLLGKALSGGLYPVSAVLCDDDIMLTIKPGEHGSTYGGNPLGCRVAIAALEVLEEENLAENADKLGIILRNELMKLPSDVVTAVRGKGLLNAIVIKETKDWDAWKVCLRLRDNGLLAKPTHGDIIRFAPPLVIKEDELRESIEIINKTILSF
Description: Plausible Inactivation Mechanisms of SS-1-148 with hOAT. The irreversibility of the inhibition of hOAT by SS-1-148 was evaluated by a time-dependent dialysis experiment up to 48 h against a buffer consisting of excessive PLP and α-KG (FIG. 10). […] To reveal the structure of the final product in the inactivation reaction, we co-crystallized hOAT with an excessive amount of SS-1-148. […] It also contains three copies of the protein monomer in one asymmetric unit. Similar to the soaking crystal structure shown in FIG. 4A, PLP is covalently linked to SS-1-148 moiety in the cocrystal structure. However, no covalent bond is noticed between Lys292 and the final product. Moreover, in the published crystal structure of the native enzyme (holo-hOAT), Arg413 typically forms a salt bridge with Glu235, which is found intact for several cocrystals of hOAT with different inactivators.^14, 23, 26 In the hOAT/SS-1-148 soaking result (FIG. 4A), the salt bridge of Arg413-Glu235 is broken due to the existence of an alternative salt bridge between the carboxylate of one intermediate and Arg413. […] Instead, Arg413, Gln266, and the final product are hydrogen-bonded to the same water molecule.
The dialysis experiment was conducted using previous protocols.^8-10

CYP 1A2 = target: T2, CYP 1A2 (Homo sapiens, UniProt P05177); experiment: CYP inhibition 1A2; format: in vitro ADME
T2 sequence (P05177 1-516): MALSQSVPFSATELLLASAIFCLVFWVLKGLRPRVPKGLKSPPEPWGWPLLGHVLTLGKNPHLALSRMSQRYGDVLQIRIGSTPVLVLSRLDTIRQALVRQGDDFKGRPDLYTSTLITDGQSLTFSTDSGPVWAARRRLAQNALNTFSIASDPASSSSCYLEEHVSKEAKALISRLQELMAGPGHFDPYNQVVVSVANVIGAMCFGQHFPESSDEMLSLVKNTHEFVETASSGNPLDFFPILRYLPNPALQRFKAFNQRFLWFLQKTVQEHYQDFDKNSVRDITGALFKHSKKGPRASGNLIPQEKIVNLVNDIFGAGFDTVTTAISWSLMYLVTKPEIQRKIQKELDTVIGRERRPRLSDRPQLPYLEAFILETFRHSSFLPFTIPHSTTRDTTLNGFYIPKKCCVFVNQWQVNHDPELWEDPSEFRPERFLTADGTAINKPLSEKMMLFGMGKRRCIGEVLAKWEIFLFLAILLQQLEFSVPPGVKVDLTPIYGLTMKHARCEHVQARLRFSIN

CYP 3A4 = CYP 3A4 (Homo sapiens, UniProt P08684); experiment: CYP inhibition 3A4; format: in vitro ADME
Aqueous solubility = format: physicochemical; conditions: aqueous medium (not further specified); HCl salt
hOAT [2] = target: T1, hOAT; experiment: Denaturing intact protein mass spectrometry of inactivated hOAT; conditions: hOAT fully inactivated; denaturing intact LC-MS
Description: The majority of hOAT remained unmodified (FIG. 5A, top) in comparison with native hOAT as a control (FIG. 5A, bottom). […] However, one would expect a higher abundance of covalently adducted enzyme under these conditions where the enzyme is fully inactivated. This finding thus supported a major non-covalent, inactivation mechansim between hOAT and SS-1-148.
Treated and unmodified purified hOAT samples were desalted ten times with Optima-grade water (Fisher) on Amicon Ultra 10 KDa molecular weight spin filters (Millipore). To chromatographically resolve protein. 0.5 μg of protein was loaded onto a 3 cm PLRP-S (Agilent) trap column using a Dionex Ultimate3000 liquid chromatography system (Thermo Fisher). The protein analyte was washed with a 10-min isocratic gradient of 10% Solvent B (95% acetonitrile/5% H2O/0.2% formic acid) and 90% Solvent A (5% acetonitrile/95% H20/0.2% formic acid). Protein was resolved on an in-house made 75 μm ID×15 cm long nanopore capillary column packed with PLRP-S resin (Agilent). […]

[3] = Plasma protein binding, human; format: in vitro ADME
hOAT [4] = target: T1, hOAT; experiment: Partition ratio experiment (titration of hOAT); format: biochemical
Description: FIG. 9. Titration of hOAT with SS-1-148. The loss of enzyme activity was measured as a function of the ratio of […] to enzyme concentration. Linear regression was used on the linear portion of the curves to obtain the X-intercept, which was the turnover number (partition ratio=turnover number−1).
The partition ratio was calculated using previous protocols.^8-10

CYP 2C9 = CYP 2C9 (Homo sapiens, UniProt P11712); experiment: CYP inhibition 2C9; format: in vitro ADME
Brain/plasma PK studies = format: in vivo; conditions: brain, read-out: B/P ratio

Sequence of CYP 2C9 (P11712 whole entry): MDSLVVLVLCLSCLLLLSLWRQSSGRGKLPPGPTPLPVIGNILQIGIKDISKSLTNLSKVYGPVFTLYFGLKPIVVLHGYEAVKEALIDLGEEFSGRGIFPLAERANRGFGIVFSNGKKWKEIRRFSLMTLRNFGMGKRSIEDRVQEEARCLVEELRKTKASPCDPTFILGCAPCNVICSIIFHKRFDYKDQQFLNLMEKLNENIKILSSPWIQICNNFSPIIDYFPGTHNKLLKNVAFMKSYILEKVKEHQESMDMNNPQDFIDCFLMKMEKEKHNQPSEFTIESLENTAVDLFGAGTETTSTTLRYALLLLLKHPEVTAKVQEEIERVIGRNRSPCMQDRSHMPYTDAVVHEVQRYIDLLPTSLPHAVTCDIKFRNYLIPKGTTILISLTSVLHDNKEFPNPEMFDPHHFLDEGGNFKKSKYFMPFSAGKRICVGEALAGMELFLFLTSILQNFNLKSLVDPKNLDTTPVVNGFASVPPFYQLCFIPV
Sequence of CYP 3A4 (P08684 whole entry): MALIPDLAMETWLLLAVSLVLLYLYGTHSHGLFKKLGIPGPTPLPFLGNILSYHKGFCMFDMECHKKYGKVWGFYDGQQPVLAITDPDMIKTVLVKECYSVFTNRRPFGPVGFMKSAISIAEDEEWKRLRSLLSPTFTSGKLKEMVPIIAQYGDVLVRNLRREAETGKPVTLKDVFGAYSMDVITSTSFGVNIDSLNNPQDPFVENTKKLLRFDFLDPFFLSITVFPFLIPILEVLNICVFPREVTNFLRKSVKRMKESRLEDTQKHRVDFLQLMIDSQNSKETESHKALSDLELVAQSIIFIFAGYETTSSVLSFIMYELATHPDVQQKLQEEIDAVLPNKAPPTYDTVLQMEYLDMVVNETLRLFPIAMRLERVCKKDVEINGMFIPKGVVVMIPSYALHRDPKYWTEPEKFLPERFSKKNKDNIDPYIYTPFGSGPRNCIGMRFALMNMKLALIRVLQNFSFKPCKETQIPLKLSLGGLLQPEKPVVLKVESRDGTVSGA

With `N[C@H]1C=C(C(=O)O)CC1(F)F` [SS-1-148, (S)-3-Amino-4,4-difluorocyclopent-1-enecarboxylic acid hydrochloric acid salt] the “remaining activity of hOAT after dialysis” value (hOAT [1]) was “unchanged”, the IC50 (CYP 1A2) was greater than 100 µM and the IC50 (CYP 3A4) was greater than 100 µM. For the same compound, the solubility (Aqueous solubility) was greater than 50 mM, the hOAT covalently modified (hOAT [2]) was roughly 16% and the fraction unbound [3] was 1. For the same compound, the “equivalents turned over per active site for each equivalent leading to inactivation” value (hOAT [4]) was 34.9 equivalents, the IC50 (CYP 2C9) was greater than 100 µM and the Kp at 0.25 h (Brain/plasma PK studies; IV (5 mg/kg)) was 0.2. It also gave a Kp at 0.25 h (Brain/plasma PK studies; PO (30 mg/kg)) of 0.14 and a Kp at 2 h (Brain/plasma PK studies; PO (30 mg/kg), 2 h) of 0.26.
